Source: patent US20220330549A1, “USE OF N-BENZYLBENZAMIDE-BASED COMPOUND AS HERBICIDE” (Northwest A&F University, priority 2020, published 2022)

How the values were obtained:
Assay type in all cases: in vivo
Digitaria sanguinalis [1] = assay: Herbicidal activity test for indoor pre-emergence soil treatment; design: key: 1-9 levels; higher = more weed remaining vs blank control; settings: 150 g a.i./ha, visual inspection 21 days after treatment
Procedure, shortened: (§1)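 Pre-emergence soil spray per NY/T 1155.3-2006: weed seeds sown in moistened neutral sandy loam (organic content ≤2%), covered with 0.5–2.0 cm soil, then sprayed 24 h later with a water-diluted 10% emulsifiable concentrate at 150 g(a.i.)/ha. Visual rating after 21 days on a 1–9 scale.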

Amaranthus retroflexus [2] = assay: as above; design: key: 1-9 levels; higher = more weed remaining vs blank control; settings: 150 g a.i./ha, visual inspection 21 days after treatment
Procedure, shortened: as §1

Humulus scandens [3] = assay: as above; settings: 150 g a.i./ha, visual inspection 21 days after treatment
Procedure, shortened: as §1

Piemarker [4] = assay: Herbicidal activity test for indoor post-emergence spraying on stems and leaves; design: key: grade level by weed remaining vs blank control, e.g. 5 = 10.1-15%; settings: 150 g a.i./ha, visual inspection 21 days after treatment
Procedure, shortened: (§2)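 Run per NY/T 1155.4-2006: weeds sown, grown in greenhouse, then sprayed post-emergence on stems and leaves. Effect scored visually 21 days after treatment on a graded level scale relative to weed in the blank control area.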

Barnyard grass [5] = assay: as above; design: key: grade level by weed remaining vs blank control, e.g. 5 = 10.1-15%; settings: 150 g a.i./ha, visual inspection 21 days after treatment
Procedure, shortened: as §2

Digitaria sanguinalis [6] = assay: as above; design: key: grade level by weed remaining vs blank control, e.g. 5 = 10.1-15%; settings: 150 g a.i./ha, visual inspection 21 days after treatment
Procedure, shortened: as §2

Humulus scandens [7] = assay: as above; design: key: grade level by weed remaining vs blank control, e.g. 5 = 10.1-15%; settings: 150 g a.i./ha, visual inspection 21 days after treatment
Procedure, shortened: as §2

green bristlegrass [8] = assay: as above; design: key: grade level by weed remaining vs blank control, e.g. 5 = 10.1-15%; settings: 150 g a.i./ha, visual inspection 21 days after treatment
Procedure, shortened: as §2

Amaranthus retroflexus [9] = assay: as above; design: key: grade level by weed remaining vs blank control, e.g. 5 = 10.1-15%; settings: 150 g a.i./ha, visual inspection 21 days after treatment
Procedure, shortened: as §2

Piemarker [10] = assay: Herbicidal activity test for indoor pre-emergence soil treatment; design: key: level 1-9; higher = more weed remaining vs blank control; settings: 150 g a.i./ha, visual inspection 21 days after treatment
Procedure, shortened: as §1

Barnyard grass [11] = assay: as above; design: key: level 1-9; higher = more weed remaining vs blank control; settings: 150 g a.i./ha, visual inspection 21 days after treatment
Procedure, shortened: as §1

green bristlegrass [12] = assay: as above; design: key: level 1-9; higher = more weed remaining vs blank control; settings: 150 g a.i./ha, visual inspection 21 days after treatment
Procedure, shortened: as §1

Chenopodium album = assay: Field test for weed control in a corn field; settings: 150 g a.i./ha, after treatment
Procedure, shortened: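 A corn-field efficacy trial following GB/T 17980.42-2000 tested post-emergence control of Chenopodium album. Test compounds formulated as 10% emulsifiable concentrates were diluted in water and sprayed at 150 g(a.i.)/ha when the corn had 2 leaves to 5 leaves, on 20 m^2 plots with 4 replicates. Herbicidal activity was rated on a 1-9 scale by damage symptoms and severity.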

Barnyard grass [13] = assay: Field test for weed control in a corn field; settings: 150 g a.i./ha, 30 days after treatment
Procedure, shortened: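 Corn-field efficacy trial following GB/T 17980.42-2000. Test compounds were formulated as 10% emulsifiable concentrates, diluted in water and sprayed post-emergence at 150 g(a.i.)/ha when corn had 2 to 5 leaves. Each treatment was replicated 4 times on 20 m^2 plots. Barnyard grass control was rated on a 1-9 damage scale.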

Portulaca oleracea = assay: Field test for weed control in a corn field; settings: 150 g a.i./ha, after treatment
Procedure, shortened: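 Field efficacy trial in corn following GB/T 17980.42-2000. Test compounds were prepared as 10% emulsifiable concentrates, diluted in water, and sprayed at 150 g(a.i.)/ha when corn had 2 to 5 leaves after sowing. Plots were 20 m^2 with 4 replicates per treatment. Herbicidal activity was scored on a 1-9 scale from weed damage symptoms and severity.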

goosegrass = assay: Field test for weed control in a corn field; settings: 150 g a.i./ha, after treatment
Procedure, shortened: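 Weed control efficacy against goosegrass was tested in a corn field following GB/T 17980.42-2000. Compounds formulated as 10% emulsifiable concentrates were diluted in water and sprayed post-emergence at 150 g(a.i.)/ha when corn had 2 to 5 leaves, with 4 replicates of 20 m^2 plots. Herbicidal activity was rated on a 1-9 scale by damage symptoms and severity.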

Solanum nigrum = assay: Field test for weed control in a corn field; settings: 150 g a.i./ha, 30 days after treatment
Procedure, shortened: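 Post-emergence weed control was tested in a corn field following GB/T 17980.42-2000. Compounds were made into 10% emulsifiable concentrates, diluted in water and sprayed at 150 g(a.i.)/ha when corn had 2 to 5 leaves after sowing, in 20 m^2 plots with 4 replicates. Effects on Solanum nigrum were graded on a 1-9 scale relative to the blank control area.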

Digitaria sanguinalis [14] = assay: Field test for weed control in a corn field; settings: 150 g a.i./ha, after treatment
Procedure, shortened: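 Field trial in a corn field following GB/T 17980.42-2000. Test compounds were formulated as 10% emulsifiable concentrates, diluted in water and sprayed post-emergence at 150 g(a.i.)/ha when corn had 2 to 5 leaves, with 4 replicates on 20 m^2 plots. Control of Digitaria sanguinalis was scored on a 1-9 scale based on weed damage relative to the untreated blank area.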

nutgrass flatsedge = assay: Field test for weed control in a corn field; settings: 150 g a.i./ha, after treatment
Procedure, shortened: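 A corn field efficacy trial following GB/T 17980.42-2000 assessed post-emergence control of nutgrass flatsedge. Test compounds were formulated as 10% emulsifiable concentrates, diluted in water, and sprayed at 150 g(a.i.)/ha when the corn had 2 to 5 leaves. Each treatment had 4 replicates on 20 m^2 plots. Herbicidal activity was graded on a 1-9 scale by damage symptoms and severity.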

green bristlegrass [15] = assay: Field test for weed control in a corn field; settings: 150 g a.i./ha, after treatment
Procedure, shortened: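 Post-emergence weed control was tested in a corn field following GB/T 17980.42-2000. When the corn had 2 leaves to 5 leaves after sowing, 10% emulsifiable concentrates diluted in water were sprayed at 150 g(a.i.)/ha on 20 m^2 plots, four replicates per treatment. Effects on green bristlegrass were scored on a 1-9 damage scale relative to the blank control area.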

Convolvulus arvensis = assay: Field test for weed control in a corn field; settings: 150 g a.i./ha, after treatment
Procedure, shortened: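 Field trial of weed control against Convolvulus arvensis in corn, run following GB/T 17980.42-2000. Test agents were formulated as 10% emulsifiable concentrates and sprayed in water at 150 g(a.i.)/ha when corn plants had 2 to 5 leaves. Each treatment was replicated 4 times on 20 m^2 plots, and 25% mesotrione oil dispersion served as the control agent.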

Acalypha australis = assay: Field test for weed control in a corn field; settings: 150 g a.i./ha, after treatment
Procedure, shortened: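 Post-emergence field trial in a corn field following GB/T 17980.42-2000. Test compounds were formulated as 10% emulsifiable concentrates, diluted in water, and sprayed at 150 g(a.i.)/ha when corn had 2 to 5 leaves, with 4 replicates on 20 m^2 plots. Mesotrione 25% oil dispersion served as the control agent. Weed control was scored on a 1-9 scale.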

Amaranthus retroflexus [16] = assay: Field test for weed control in a corn field; settings: 150 g a.i./ha, 30 days after treatment
Procedure, shortened: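 Field efficacy trial in a corn field following GB/T 17980.42-2000. Test compounds were formulated as 10% emulsifiable concentrates, diluted in water and sprayed post-emergence when corn had 2 to 5 leaves. Each treatment covered 20 m^2 with 4 replicates. A 25% mesotrione oil dispersion served as control. Damage to Amaranthus retroflexus was rated on a 1-9 scale against untreated blank plots.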

Gramineae = assay: Post-emergence herbicidal activity test in a paddy field; design: key: level scale; higher level = more weed left vs blank control; settings: 150 g a.i./ha (penoxsulam control 250 g(a.i.)/h)
Procedure, shortened: (§3)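 Efficacy was visually estimated 15 and 30 days after spraying, grading weed coverage relative to an untreated neighbouring plot (level 2 = 0 to 2.5%, level 9 = 67.6 to 100%). Treatments were 150 g(a.i.)/ha from 10% emulsifiable concentrates applied at the 4-5 leaf rice stage, four repeats of 50 m^2 each.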

Broadleaf weed = assay: as above; design: key: level scale; higher level = more weed left vs blank control; settings: 150 g a.i./ha (penoxsulam control 250 g(a.i.)/h)
Procedure, shortened: as §3

Cyperaceae = assay: as above; design: key: level scale; higher level = more weed left vs blank control; settings: 150 g a.i./ha (penoxsulam control 250 g(a.i.)/h)
Procedure, shortened: as §3

| Structure (SMILES) | Herbicidal Activity Digitaria sanguinalis (Digitaria sanguinalis [1]) | Herbicidal Activity Amaranthus retroflexus (Amaranthus retroflexus [2]) | Herbicidal Activity Humulus scandens (Humulus scandens [3]) | Herbicidal Activity Piemarker (Piemarker [4]) | Herbicidal Activity Barnyard grass (Barnyard grass [5]) | Herbicidal Activity Digitaria sanguinalis (Digitaria sanguinalis [6]) | Herbicidal Activity Humulus scandens (Humulus scandens [7]) | Herbicidal Activity Green bristlegrass (green bristlegrass [8]) | Herbicidal Activity Amaranthus retroflexus (Amaranthus retroflexus [9]) | Herbicidal Activity Piemarker (Piemarker [10]) | Herbicidal Activity Barnyard grass (Barnyard grass [11]) | Herbicidal Activity Green bristlegrass (green bristlegrass [12]) | Post-emergence weed control effect, Chenopodium album (Chenopodium album) | Post-emergence weed control effect, Barnyard grass (Barnyard grass [13]) | Post-emergence weed control effect, Portulaca oleracea (Portulaca oleracea) | Post-emergence weed control effect, Goose grass (goosegrass) | Post-emergence weed control effect, Solanum nigrum (Solanum nigrum) | Post-emergence weed control effect, Digitaria sanguinalis (Digitaria sanguinalis [14]) | Post-emergence weed control effect, Nutgrass flatsedge (nutgrass flatsedge) | Post-emergence weed control effect, Green bristlegrass (green bristlegrass [15]) | also measured |
| --- | --- | --- | --- | --- | --- | --- | --- | --- | --- | --- | --- | --- | --- | --- | --- | --- | --- | --- | --- | --- | --- |
| COc1ncccc1C(=O)NCc1cc(F)cc(Cl)c1 [Compound A89] | 2 (equivalent to 0 to 2.5% of the weed in the blank control area) | 1 | 2 (equivalent to 0 to 2.5% of the weed in the blank control area) | 1 | 1 | 1 | 1 | 1 | 1 | 1 | 1 | 1 | 1 | 1 | 1 | 2 (equivalent to 0 to 2.5% of the weed in the blank control area) | 2 (equivalent to 0 to 2.5% of the weed in the blank control area) | 2 (equivalent to 0 to 2.5% of the weed in the blank control area) | 2 (equivalent to 0 to 2.5% of the weed in the blank control area) | 1 | Post-emergence weed control effect, Convolvulus arvensis (Convolvulus arvensis): 1; Post-emergence weed control effect, Acalypha australis (Acalypha australis): 1; Post-emergence weed control effect, Amaranthus retroflexus (Amaranthus retroflexus [16]): 1; Herbicidal activity 15 days after treatment Gramineae (Gramineae): 1; Herbicidal activity 30 days after treatment Gramineae (Gramineae): 1; Herbicidal activity 15 days after treatment Broadleaf weed (Broadleaf weed): 1; Herbicidal activity 30 days after treatment Broadleaf weed (Broadleaf weed): 1; Herbicidal activity 15 days after treatment Cyperaceae (Cyperaceae): 1; Herbicidal activity 30 days after treatment Cyperaceae (Cyperaceae): 1 |
| COc1ncccc1C(=O)NCc1cccc(Cl)c1 [Compound A91] | 2 (equivalent to 0 to 2.5% of the weed in the blank control area) | 1 | 2 (equivalent to 0 to 2.5% of the weed in the blank control area) | 1 | 1 | 1 | 1 | 1 | 1 | 1 | 1 | 1 | 1 | 1 | 1 | 2 (equivalent to 0 to 2.5% of the weed in the blank control area) | 2 (equivalent to 0 to 2.5% of the weed in the blank control area) | 2 (equivalent to 0 to 2.5% of the weed in the blank control area) | 2 (equivalent to 0 to 2.5% of the weed in the blank control area) | 2 (equivalent to 0 to 2.5% of the weed in the blank control area) | Post-emergence weed control effect, Convolvulus arvensis (Convolvulus arvensis): 1; Post-emergence weed control effect, Acalypha australis (Acalypha australis): 2 (equivalent to 0 to 2.5% of the weed in the blank control area); Post-emergence weed control effect, Amaranthus retroflexus (Amaranthus retroflexus [16]): 1; Herbicidal activity 15 days after treatment Gramineae (Gramineae): 2 (equivalent to 0 to 2.5% of the weed in the blank control area); Herbicidal activity 30 days after treatment Gramineae (Gramineae): 2 (equivalent to 0 to 2.5% of the weed in the blank control area); Herbicidal activity 15 days after treatment Broadleaf weed (Broadleaf weed): 1; Herbicidal activity 30 days after treatment Broadleaf weed (Broadleaf weed): 1; Herbicidal activity 15 days after treatment Cyperaceae (Cyperaceae): 1; Herbicidal activity 30 days after treatment Cyperaceae (Cyperaceae): 1 |
